From patent publication US8765696B2, “Steroid compound” (Mikasa Seiyaku Co., Ltd., priority 2009, dated 2014)

Tests used:
[1] = test system: DNCB-induced dermatitis; experiment: Test for DNCB-induced dermatitis (skin thickness and thymus weight); type: in vivo; conditions: rat, 0.1 mL once per day, 6 times
Method: The DNCB-induced dermatitis test, which is a representative model for allergic dermatitis, was used to study the pharmacological effect of the compound of the present invention.
Abdominal hair of rats (body weight, 205 to 230 g) under isoflurane anesthesia was shaved with an electric clipper and a shaver, and a test region having a size of 3 cm×4 cm was prepared, followed by applying 0.4 mL of 1% DNCB/acetone solution to the inside of the region, to carry out sensitization. Two weeks later, 1 mL of 1% DNCB/acetone solution was applied to the inside of the region to cause induction, and 4 days thereafter, reinduction was carried out. Two days after the reinduction, the skin was removed from the test region, and 5 predetermined positions were punched out using a punch having a diameter of 12 mm, followed by measuring the skin thickness using a dial thickness gauge. Further, to investigate the influence of side effects, the thymus was removed to measure its weight. Application of the test drug was carried out 4 hours after the first dermatitis induction such that 0.1 mL of the ointment is uniformly applied over the test region. Thereafter, the test drug was applied once per day, a total of 6 times until the next day of the reinduction (the day before removal of the skin). The skin thickness and the weight of the thymus are shown in Table 3 as the suppression rate and the atrophy rate (%) relative to those of the control group.

[2] = Amount of production of active metabolite in inflamed skin and non-inflamed skin; type: in vivo; conditions: hairless rat, 0.1 mL of 0.1% ointment, LC/MS/MS, Mean ± S.D.
Source text: The compounds of the present invention have the advantageous feature that they show the pharmacological effect after being metabolized to an active metabolite (des-ciclesonide) at the site of inflammation. The amount of the active metabolite produced when the compound of the present invention was applied to inflamed skin (skin whose dermatitis was induced by DNCB) or non-inflamed skin (normal skin) was compared.
Using, as the test region, an area of 3 cm×4 cm on the abdomen of a hairless rat of 9 weeks old, 0.4 mL of 1% DNCB/acetone solution was applied to the inside of the region under isoflurane anesthesia, to carry out sensitization. Two weeks later, 1 mL of 1% DNCB/acetone solution was applied to the inside of the region to cause induction, and, 48 hours thereafter, 0.1 mL of a test drug (0.1% ointment) was uniformly applied to the test region. The skin was removed 48 hours after the beginning of the application of the test drug. On the other hand, the test drug was also applied to a normal animal which had not been subjected to the sensitization and the induction, and the skin was removed 48 hours later. […] After centrifugation (10,000 g, 4° C., 5 min.), the centrifugal supernatant was subjected to quantification of the amount of the active metabolite (des-ciclesonide) using LC/MS/MS. […]

[3] = test system: croton oil-induced ear edema; experiment: Test for croton oil-induced ear edema; type: in vivo; conditions: rat right auricle; for Edema suppression rate of 6 hours after administration of inflammatory agent (%): 6 hours after croton oil; for Edema suppression rate of 24 hours after administration of inflammatory agent (%): 24 hours after croton oil
Method: Croton oil ear edema test, which is a representative model for dermatitis, was used to study the pharmacological effect of compounds of the present invention.
Five individuals/group of rats of 5 weeks old (body weight, 128 g to 169 g) were used. One day before the test, the thickness of the right ear was measured under ether anesthesia using a dial thickness gauge, to obtain the Pre value. On the day of the test, 20 mg each of the ointments to be tested, which had been prepared to have various concentrations in white vaseline, was applied to the right auricle (both sides) of each rat, and a collar was then placed around the neck of the rat to prevent contacting/scratching and removal of the drug. Two hours later, the ointment was wiped off under ether anesthesia using absorbent cotton, and 0.1 mL of 5% croton oil (croton oil:ether:pyridine:distilled water=1:14:4:1) solution was applied dropwise to the both sides of the auricle while drying the solution with a drier (air blow), to induce ear edema. Six and 24 hours after the induction of the edema, the thickness of the right auricle was measured under ether anesthesia, and the edema rate and the edema suppression rate were calculated according to the equations below, which suppression rate is shown in Table 1.

[4] = test system: croton oil-induced granuloma; experiment: Test for croton oil-induced granuloma (air pouch exudate and thymus weight); type: in vivo, rat; conditions: male Wistar rats, 7 days, vs control group
Source text: Using the croton oil granuloma test, which is a test method with which the local anti-inflammatory action and the systemic side effect can be evaluated at the same time, the pharmacological effect and the systemic side effect of the compounds of the present invention were studied.
Five individuals/group of male Wistar rats having body weights of 180 to 225 g were used, and hair on the back of these rats was shaved with a clipper under ether anesthesia, followed by preparing an air pouch by subcutaneous injection of 20 mL of air at the back. On the next day, 1 mL of cottonseed oil containing 1% croton oil was administered to the pouch. Each test drug was suspended in the croton oil-containing cottonseed oil before administration. Seven days later, blood was collected from abdominal aorta under ether anesthesia, and exudate in the pouch was collected and its fluid amount was measured. Further, the thymus was removed, and its weight was measured. The weight of the exudate and the weight of the thymus are shown in Table 2 as the suppression rate and the atrophy rate (%) with respect to those of the control group.

[5] = drug concentration 0.01% ointment
[6] = drug concentration 0.10% ointment

| Compound | Rate of Skin thickness suppression (pharmacological effects) (%) [1, 5] | Rate of thymus atrophy (systemic side effects) (%) [1, 5] | Rate of Skin thickness suppression (pharmacological effects) (%) [1, 6] | Rate of thymus atrophy (systemic side effects) (%) [1, 6] | Drug concentration of active metabolite (Compound C), 48 hours after test drug were applied once ([2]; DNCB-induced dermatitis skin) | Drug concentration of active metabolite (Compound C), 48 hours after test drug were applied once ([2]; non-inflamed skin (normal skin)) | Edema suppression rate of 6 hours after administration of inflammatory agent (%) ([3]; ointment concentration 0.001%) | Edema suppression rate of 24 hours after administration of inflammatory agent (%) ([3]; ointment concentration 0.001%) | Edema suppression rate of 6 hours after administration of inflammatory agent (%) ([3]; ointment concentration 0.01%) | Edema suppression rate of 24 hours after administration of inflammatory agent (%) ([3]; ointment concentration 0.01%) | Edema suppression rate of 6 hours after administration of inflammatory agent (%) ([3]; ointment concentration 0.1%) | Edema suppression rate of 24 hours after administration of inflammatory agent (%) ([3]; ointment concentration 0.1%) | Rate of exudates suppression (pharmacological effects) ([4]; dose 0.001 mg/rat into pouch) | Rate of thymus atrophy (systemic side effects) ([4]; dose 0.001 mg/rat into pouch) | Rate of exudates suppression (pharmacological effects) ([4]; dose 0.01 mg/rat into pouch) | Rate of thymus atrophy (systemic side effects) ([4]; dose 0.01 mg/rat into pouch) | Rate of exudates suppression (pharmacological effects) ([4]; dose 0.1 mg/rat into pouch) | Rate of thymus atrophy (systemic side effects) ([4]; dose 0.1 mg/rat into pouch) | Rate of exudates suppression (pharmacological effects) ([4]; dose 1 mg/rat into pouch) | Rate of thymus atrophy (systemic side effects) ([4]; dose 1 mg/rat into pouch) |
| --- | --- | --- | --- | --- | --- | --- | --- | --- | --- | --- | --- | --- | --- | --- | --- | --- | --- | --- | --- | --- |
| CC(=O)OCC1OC(OCC(=O)C23OC(C4CCCCC4)OC2CC2C4CCC5=CC(=O)C=CC5(C)C4C(O)CC23C)C(OC(C)=O)C(OC(C)=O)C1OC(C)=O (stereo not drawn) [Compound 3] | 46.1% | 0.0% | 60.5% | 0.0% | 1272 ± 276 (ng/g) | 119 ± 48 (ng/g) | 50.3% | 48.1% | 46.1% | 58.0% | 51.7% | 56.0% | 7.9% | 0.0% | 41.6% | 0.0% | 92.7% | 0.0% | 96.3% | 2.4% |
| CC12C=CC(=O)C=C1CCC1C2C(O)CC2(C)C1CC1OC(C3CCCCC3)OC12C(=O)COC1OC(COC(=O)c2ccco2)C(OC(=O)c2ccco2)C(OC(=O)c2ccco2)C1OC(=O)c1ccco1 (stereo not drawn) [Compound 8] |  |  |  |  |  |  | 24.2% | 25.9% | 36.0% | 40.1% | 33.4% | 49.6% | 19.1% | 0.0% | 42.1% | 0.0% | 78.0% | 0.0% | 95.0% | 0.5% |
| CC(=O)OC1C(C)OC(OCC(=O)C23OC(C4CCCCC4)OC2CC2C4CCC5=CC(=O)C=CC5(C)C4C(O)CC23C)C(OC(C)=O)C1OC(C)=O (stereo not drawn) [Compound 9] |  |  |  |  |  |  | 24.6% | 17.8% | 36.7% | 8.6% | 23.0% | 21.6% | 10.4% | 12.2% | 7.3% | 10.8% | 26.1% | 9.4% | 58.2% | 15.5% |
| CC(C)C(=O)OCC(=O)[C@@]12O[C@H](C3CCCCC3)O[C@@H]1C[C@H]1[C@@H]3CCC4=CC(=O)C=C[C@]4(C)[C@H]3[C@@H](O)C[C@@]12C [Ciclesonide, ciclesonide, reference compound] |  |  |  |  |  |  | 9.1% | 9.4% | 30.3% | 24.5% | 49.4% | 43.5% | 62.8% | 6.0% | 93.5% | 13.0% | 93.0% | 23.6% | 92.6% | 84.4% |
| CCCC(=O)OCC1OC(OCC(=O)C23OC(C4CCCCC4)OC2CC2C4CCC5=CC(=O)C=CC5(C)C4C(O)CC23C)C(OC(=O)CCC)C(OC(=O)CCC)C1OC(=O)CCC (stereo not drawn) [Compound 5] |  |  |  |  |  |  | 21.7% | 11.1% | 61.5% | 48.1% | 57.6% | 52.3% | 17.8% | 0.0% | 14.3% | 0.0% | 40.4% | 0.0% | 91.4% | 0.0% |
| CC12C=CC(=O)C=C1CCC1C2C(O)CC2(C)C1CC1OC(C3CCCCC3)OC12C(=O)COC1OC(COC=O)C(OC=O)C(OC=O)C1OC=O (stereo not drawn) [Compound 7] |  |  |  |  |  |  | 42.3% | 52.0% | 49.7% | 53.4% | 48.5% | 53.5% | 8.7% | 2.9% | 52.4% | 0.0% | 59.4% | 5.8% | 76.8% | 19.5% |
